The values that follow come from US7524487B2, “Compositions and methods for modulating interleukin-10” (University of Maryland, priority 2005, dated 2009).

This assay has as its system IL-10 promoter. The assay can be described thus: DNase I accessibility of the IL-10 promoter (nucleosome −2) by QRT-PCR. It is filed as cell-based, mice. Particulars: BMMφ pre-treated with PD98059 15 μM for 1 hour, IC plus LPS 10 ng/mL for 60 min. As to the method:
FIG. 23 are graphs showing enhanced chromatin accessibility following ERK activation. (A) BMMφ were stimulated with IC plus LPS (10 ng/mL) for 0, 15, 30, 60, and 120 min. Nuclei were isolated at each time point post-stimulation and treated with or without MNase. DNA was purified and analyzed for the presence of sequences corresponding to nucleosomes −2 and −12 by QRT-PCR. The data were graphically plotted as percentage of MNase accessibility relative to the samples of stimulation at zero time point. (B) BMMφwere pre-treated with PD98059 (15 μM) (open bars) or drug vehicle control (solid bars) for 1 hour and then stimulated with IC plus LPS (10 ng/mL) for 60 min. Nuclei were isolated from each group and treated with or without DNase I followed by extraction of genomic DNA. […] The data were expressed as percentage of DNase I accessibility relative to undigested genomic DNA sample and graphically plotted for each treated group. […]
DNase I sensitivity assayed by Real-time PCR. DNase I accessibility was determined as previously described (Goriely, et al. 2003. Blood 101:4894-4902; Rao, et al. 2001. J. Immunol. 167:4494-4503.) with minor modifications. […]
MNase accessibility assay was performed on cells grown in 100-mm tissue culture dishes that were stimulated with LPS/IC. […] DNase I accessibility was determined as previously described (Lucas, M., X. Zhang, et al. 2005. J. Immunol. 175:469).

As to `COc1cccc(-c2cc(=O)c3ccccc3o2)c1N` [PD98059], the “reduction of sensitivity to DNase I at nucleosome −2” value was “greater than half”.
